# Experimental data from US20020183366A1, “Cyclooxygenase-2 inhibitors, compositions and methods of use” (priority 2001, published 2002).
# Legend:
# human COX-2 = biological target: T1, human COX-2 (Homo sapiens, UniProt P35354); assay: COX Inhibitor Screening Assay, COX-2 activity; assay type: biochemical
# T1 construct: purchased Cayman Chemical, Ann Arbor, Mich
# T1 sequence (P35354 18-604): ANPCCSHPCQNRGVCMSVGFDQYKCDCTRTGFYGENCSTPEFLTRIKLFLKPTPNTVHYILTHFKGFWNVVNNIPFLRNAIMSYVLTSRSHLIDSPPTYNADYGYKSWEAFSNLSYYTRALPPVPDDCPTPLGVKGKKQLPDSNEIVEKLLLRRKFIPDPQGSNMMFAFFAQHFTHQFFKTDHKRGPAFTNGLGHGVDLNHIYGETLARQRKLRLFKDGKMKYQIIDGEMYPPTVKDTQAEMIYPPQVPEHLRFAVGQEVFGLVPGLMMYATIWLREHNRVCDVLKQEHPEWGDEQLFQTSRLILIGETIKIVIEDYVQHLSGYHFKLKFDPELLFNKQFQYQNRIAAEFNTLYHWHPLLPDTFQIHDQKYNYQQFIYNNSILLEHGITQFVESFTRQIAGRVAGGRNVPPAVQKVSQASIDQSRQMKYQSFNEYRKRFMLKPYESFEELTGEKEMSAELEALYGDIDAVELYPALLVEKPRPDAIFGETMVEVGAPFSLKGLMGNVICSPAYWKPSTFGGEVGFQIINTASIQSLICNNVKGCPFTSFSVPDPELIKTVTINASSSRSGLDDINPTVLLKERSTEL
# Protocol: (§1) The ovine COX-1 and human CO-2 activities and the measurement of the prostaglandin products synthesized were performed using the COX Inhibitor Screening Assay (Cayman Chemical, Ann Arbor, Mich., which also contained the Prostaglandin Screening EIA Kit, used for prostaglandin quantification). The test compounds were dissolved at 50 times the highest final reaction concentration in DMSO or any other suitable solvent as stock solutions. These stock solutions were then diluted in the same solvent. Eight glass test tubes (13×100 mm) were placed in a 37° C. water bath. To each test tube was added 950 μL of reaction buffer (0.1 M Tris-HCl, pH 8.0, containing 5 mM EDTA, and 2 mM phenol), 10 μL of 100 µM heme solution, and 10 μL (5 units) of either ovine COX-1 or human COX-2 and the resulting mixture was incubated with the enzyme for 2 minutes. Twenty μL of the solvent was added to one tube (100% initial activity or solvent control) and 20 μL of each dilution of the test compound was added to one tube each. Each tube was vortexed immediately after the addition. The enzyme was incubated with the inhibitor for 3.5 minutes at 37° C. The enzymatic reaction was then initiated by the addition of 10 μL of freshly prepared 10 mM arachidonic acid (neutralized with KOH), vortexed and then incubated for 2 minutes at 37° C. […]
# ovine COX-1 = biological target: T2, ovine COX-1 (Ovis aries, UniProt P05979); assay: COX Inhibitor Screening Assay, COX-1 activity; assay type: biochemical; conditions: 100 μM test compound
# T2 construct: purchased Cayman Chemical, Ann Arbor, Mich
# T2 sequence (P05979 25-600): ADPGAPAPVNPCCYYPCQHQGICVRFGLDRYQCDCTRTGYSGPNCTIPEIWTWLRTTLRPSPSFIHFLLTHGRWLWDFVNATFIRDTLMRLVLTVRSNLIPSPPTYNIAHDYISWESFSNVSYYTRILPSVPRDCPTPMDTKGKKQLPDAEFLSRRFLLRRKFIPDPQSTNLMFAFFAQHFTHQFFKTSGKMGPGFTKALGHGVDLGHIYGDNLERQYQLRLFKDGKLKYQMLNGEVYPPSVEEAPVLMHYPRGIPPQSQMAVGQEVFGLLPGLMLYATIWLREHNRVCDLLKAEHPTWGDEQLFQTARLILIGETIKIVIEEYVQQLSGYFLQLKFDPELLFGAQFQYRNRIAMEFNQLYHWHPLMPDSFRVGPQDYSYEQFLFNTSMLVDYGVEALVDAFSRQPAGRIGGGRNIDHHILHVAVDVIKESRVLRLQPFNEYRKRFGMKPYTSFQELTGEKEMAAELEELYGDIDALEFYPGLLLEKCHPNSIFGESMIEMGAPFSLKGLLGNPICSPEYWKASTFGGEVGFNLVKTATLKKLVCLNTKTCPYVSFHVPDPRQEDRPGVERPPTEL
# Protocol: as §1
smiles,measurement,setting,value
"O=C1OCC(c2ccc(S(=O)(=O)CF)cc2)=C1c1ccccc1 [Example 1, 4-(4-((Fluoromethyl)sulfonyl)phenyl)-3-phenyl-5-hydrofuran-2-one]",COX-2 Inhibition (% at 10 μM),"human COX-2; 10 μM test compound, human COX-2",40%
same,COX-2 selectivity,"human COX-2; COX-2 versus COX-1, from Table 1",has COX-2 selectivity
same,COX-1 Inhibition (% at 100 μM),ovine COX-1,30%
